Reference: PubChem BioAssay AID1963422 (Molecular Pharmacology Branch, DTP, NCI, 2024)

Test system: 463943-066-T-J2-PDC complex spheroid growth
Test: Anticancer human tumor 463943-066-T-J2-PDC patient-derived colon adenocarcinoma cell line growth inhibition [Asc]
Details: for IC50: curve of first compound; for viability, T/C: stronger effect = lower value
Description: Multicellular complex tumor spheroid response to apoptosis pathway targeting inhibitors Alrizomadlin, Pelcitoclax, and Dasminapant in combination with a variety of drugs and investigational agents in selected tumor cell lines
The MDM2 inhibitor alrizomadlin, the Bcl-2/Bcl-xL inhibitor pelcitoclax, and the IAPs inhibitor dasminapant were evaluated both individually and in combination with standard of care and investigational anticancer small molecules within a complex spheroid model of solid tumors. . Complex spheroids include a stromal component modeled by human endothelial cells (HUVEC) and fibroblasts modeled by human mesenchymal stem cells (MSCs). The concentration ranges selected for each drug and investigational agent were based upon clinically achievable concentrations if the clinical Cmax of the agent was known.
Compounds. The drugs and investigational agents: alrizomadlin (APG-115; NSC831270), pelcitoclax (APG-1252; NSC835773), dasminapant (APG-1387;NSC834197), TAK-243 (NSC785004), copanlisib (NSC809693), olaparib (NSC753686), talazoparib (NSC767125), cobimetinib (NSC 768068), eltanexor (KPT-8602, NSC 794443), abemaciclib (NSC 768073), sotorasib (NSC818433), adagrasib (NSC 831453), MRTX-1133 (NSC 836407), Iadademestat (ORY1001, NSC 806812), and RMC-4630 (NSC839698), were obtained from the NCI Developmental Therapeutics Program Chemical Repository. The FDA-approved anticancer drug set is available from the Developmental Therapeutics Program at https://dtp.cancer.gov/organization/dscb/obtaining/available plates.htm. […] The stock solutions were prepared in dimethyl sulfoxide (DMSO, Sigma-Aldrich, St. Louis, MO, cat. D2650) at 800-fold the tested concentration and stored at -70 degrees C prior to their use. All drugs and investigational agents were tested over a range starting from a high concentration at or near the clinical Cmax and decreasing in half-log increments. If the clinical Cmax for an agent had not been determined, the highest concentration tested was 10 microM.
The patient-derived cancer (PDC) cell lines include five colon adenocarcinomas: 186277-243-T-J2-PDC, 616215-338-R-J1-PDC, 439559-082-T-J2-PDC, 463943-066-T-J2-PDC, and 519858-162-T-J1-PDC; three pancreatic carcinomas: 323965-272-R-J2-PDC, 521955-158-R6-J3-PDC, and 521955-158-R2-J5-PDC; two uterine sarcomas: 327498-152-R-J2-PDC and 993429-296-R-J1-PDC; two rhabdomyosarcomas: 755483-174-R-J1-PDC and 772245-204-R-J1-PDC; two soft tissue sarcomas: 126254-015-R-J1-PDC and 494315-158-R-J1-PDC; two malignant fibrous histiocytomas: 317291-083-R-J1-PDC and 596521-263-R-J1-PDC; two breast carcinomas: 171881-019-R-J1-PDC and 885512-296-R-J2-PDC; and one ovarian carcinoma: 6556581-035-R-J-PDC were obtained from the NCI PDMR, (https://pdmr.cancer.gov). The established cell lines HSSY-2 synovial sarcoma (RRID:CVCL 8719), SYO-1 synovial sarcoma (RRID:CVCL_7146), MPNST malignant peripheral neural sheath tumor were obtained from the Sloan Kettering Institute. The following established cell lines were purchased from the American Type Culture Collection (ATCC, Manassas, VA), Sor the received from the NCI repository:, PANC-1 pancreatic carcinoma (CRL-1469, RRID:CVCL_0480), OVCAR-5 ovarian carcinoma (RRID:CVCL_1628), OVCAR-8 ovarian carcinoma (RRID:CVCL_1629), , MCF-7 breast carcinoma (CRL-12584, RRID:CVCL_0031), MDA-MB-231 breast carcinoma (CRL-12532, RRID:CVCL_0062), NCI-H1876 small cell lung carcinoma (CRL-5902, RRID:CVCL_1503), NCI-H510A small cell lung carcinoma (HTB-184, RRID:CVCL_1565), NCI-H1417 (CRL-5869, RRID:CVCL_1469), and NCI-H196 small cell lung carcinoma (CRL-5823, RRID:CVCL_1509). Dr. Peter Houghton (Greehey Children's Cancer Research Institute, University of Texas Health Science Center, San Antonio, TX) provided Rh-18 rhabdomyosarcoma (RRID:CVCL_1659). Pooled donor human umbilical vein endothelial cells (HUVEC, Lonza, cat. CC-2519) and human mesenchymal stem cells (hMSC, Lonza, cat. PT-2501) were purchased from Lonza (Walkersville, MD).
Cell Culture. […]

[1] = second compound 0.00949 µM, first compound 0.00316 µM
[2] = second compound 0.00949 µM, first compound 0.01 µM
[3] = second compound 0.00949 µM, first compound 0.0316 µM
[4] = second compound 0.00949 µM, first compound 0.1 µM
[5] = second compound 0.00949 µM, first compound 0.316 µM
[6] = second compound 0.00949 µM, first compound 1 µM
[7] = second compound 0.03 µM, first compound 0.00316 µM
[8] = second compound 0.03 µM, first compound 0.01 µM
[9] = second compound 0.03 µM, first compound 0.0316 µM
[10] = second compound 0.03 µM, first compound 0.1 µM
[11] = second compound 0.03 µM, first compound 0.316 µM
[12] = second compound 0.03 µM, first compound 1 µM
[13] = second compound 0.0949 µM, first compound 0.00316 µM
[14] = second compound 0.0949 µM, first compound 0.01 µM
[15] = second compound 0.0949 µM, first compound 0.0316 µM
[16] = second compound 0.0949 µM, first compound 0.1 µM
[17] = second compound 0.0949 µM, first compound 0.316 µM
[18] = second compound 0.0949 µM, first compound 1 µM
[19] = second compound 0.3 µM, first compound 0.00316 µM
[20] = second compound 0.3 µM, first compound 0.01 µM
[21] = second compound 0.3 µM, first compound 0.0316 µM
[22] = second compound 0.3 µM, first compound 0.1 µM
[23] = second compound 0.3 µM, first compound 0.316 µM
[24] = second compound 0.3 µM, first compound 1 µM
[25] = second compound 0.949 µM, first compound 0.00316 µM
[26] = second compound 0.949 µM, first compound 0.01 µM
[27] = second compound 0.949 µM, first compound 0.0316 µM
[28] = second compound 0.949 µM, first compound 0.1 µM
[29] = second compound 0.949 µM, first compound 0.316 µM
[30] = second compound 0.949 µM, first compound 1 µM
[31] = second compound 3 µM, first compound 0.00316 µM
[32] = second compound 3 µM, first compound 0.01 µM
[33] = second compound 3 µM, first compound 0.0316 µM
[34] = second compound 3 µM, first compound 0.1 µM
[35] = second compound 3 µM, first compound 0.316 µM
[36] = second compound 3 µM, first compound 1 µM
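Also: compound exposure lasted 7 days.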
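For viability, T/C in this document: 100% = DMSO vehicle control wells.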

CCN1CCN(Cc2ccc(Nc3ncc(F)c(-c4cc(F)c5nc(C)n(C(C)C)c5c4)n3)nc2)CC1 + CCN1C(C(=O)NC23CCC(C(=O)O)(CC2)CC3)C(c2cccc(Cl)c2F)C2(C(=O)Nc3cc(Cl)ccc32)C12CCCCC2
IC50 (second compound 0.00949 µM): > 1000 nM
IC50 (second compound 0.03 µM): > 1000 nM
IC50 (second compound 0.0949 µM): > 1000 nM
IC50 (second compound 0.3 µM): > 1000 nM
IC50 (second compound 0.949 µM): > 1000 nM
IC50 (second compound 3 µM): > 1000 nM
viability, T/C [1]: 99.6%
viability, T/C [2]: 92.3%
viability, T/C [3]: 91.4%
viability, T/C [4]: 96.2%
viability, T/C [5]: 110%
viability, T/C [6]: 113%
viability, T/C [7]: 94.8%
viability, T/C [8]: 93.2%
viability, T/C [9]: 92.7%
viability, T/C [10]: 92.5%
viability, T/C [11]: 104%
viability, T/C [12]: 109%
viability, T/C [13]: 91.4%
viability, T/C [14]: 90.8%
viability, T/C [15]: 84.2%
viability, T/C [16]: 92%
viability, T/C [17]: 96.2%
viability, T/C [18]: 106%
viability, T/C [19]: 85.6%
viability, T/C [20]: 76.9%
viability, T/C [21]: 80.3%
viability, T/C [22]: 78%
viability, T/C [23]: 88.9%
viability, T/C [24]: 106%
viability, T/C [25]: 74.5%
viability, T/C [26]: 75.5%
viability, T/C [27]: 76.2%
viability, T/C [28]: 75.4%
viability, T/C [29]: 81.5%
viability, T/C [30]: 99.4%
viability, T/C [31]: 72.5%
viability, T/C [32]: 71.8%
viability, T/C [33]: 71.8%
viability, T/C [34]: 74.4%
viability, T/C [35]: 88.8%
viability, T/C [36]: 103%

O=C(c1ccc(F)c(F)c1Nc1ccc(I)cc1F)N1CC(O)([C@@H]2CCCCN2)C1 + CCN1C(C(=O)NC23CCC(C(=O)O)(CC2)CC3)C(c2cccc(Cl)c2F)C2(C(=O)Nc3cc(Cl)ccc32)C12CCCCC2
IC50 (second compound 0.00949 µM): 188 nM
IC50 (second compound 0.03 µM): 133 nM
IC50 (second compound 0.0949 µM): 117 nM
IC50 (second compound 0.3 µM): 70.6 nM
IC50 (second compound 0.949 µM): 34.9 nM
IC50 (second compound 3 µM): 17.7 nM
viability, T/C [1]: 86.3%
viability, T/C [2]: 78.7%
viability, T/C [3]: 74.2%
viability, T/C [4]: 63.5%
viability, T/C [5]: 39.1%
viability, T/C [6]: 27.9%
viability, T/C [7]: 93.5%
viability, T/C [8]: 77.5%
viability, T/C [9]: 63.7%
viability, T/C [10]: 56.2%
viability, T/C [11]: 40%
viability, T/C [12]: 29%
viability, T/C [13]: 84.5%
viability, T/C [14]: 74.7%
viability, T/C [15]: 65.7%
viability, T/C [16]: 50.8%
viability, T/C [17]: 39.4%
viability, T/C [18]: 28.2%
viability, T/C [19]: 79.5%
viability, T/C [20]: 65.2%
viability, T/C [21]: 54.9%
viability, T/C [22]: 50.5%
viability, T/C [23]: 37.8%
viability, T/C [24]: 29.6%
viability, T/C [25]: 67.8%
viability, T/C [26]: 60%
viability, T/C [27]: 48.3%
viability, T/C [28]: 44.1%
viability, T/C [29]: 39.5%
viability, T/C [30]: 32.4%
viability, T/C [31]: 65%
viability, T/C [32]: 55.7%
viability, T/C [33]: 44.2%
viability, T/C [34]: 40.4%
viability, T/C [35]: 36.6%
viability, T/C [36]: 33.8%
